Each compound was assayed against recombinant human LRRK2 (catalytic domain only [amino acids 970-2527], GST-tagged) (Homo sapiens (Human), UniProt Q5S007) (assay: LRRK2 Enzymatic Assay). Settings: LRRKtide substrate, [32P]-ATP.
Type: biochemical
How it was run: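 Radiometric P81 filter-binding read-out of [32P]-ATP transfer to LRRKtide (20 μM) by 30 nM GST-LRRK2 970-2527, 2 h at room temperature after 20 min compound preincubation (10 μM–0.5 nM, 1% DMSO). IC50 derived from % remaining activity versus DMSO.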

recombinant human LRRK2 (catalytic domain only [amino acids 970-2527], GST-tagged), sequence (Q5S007 970-2527): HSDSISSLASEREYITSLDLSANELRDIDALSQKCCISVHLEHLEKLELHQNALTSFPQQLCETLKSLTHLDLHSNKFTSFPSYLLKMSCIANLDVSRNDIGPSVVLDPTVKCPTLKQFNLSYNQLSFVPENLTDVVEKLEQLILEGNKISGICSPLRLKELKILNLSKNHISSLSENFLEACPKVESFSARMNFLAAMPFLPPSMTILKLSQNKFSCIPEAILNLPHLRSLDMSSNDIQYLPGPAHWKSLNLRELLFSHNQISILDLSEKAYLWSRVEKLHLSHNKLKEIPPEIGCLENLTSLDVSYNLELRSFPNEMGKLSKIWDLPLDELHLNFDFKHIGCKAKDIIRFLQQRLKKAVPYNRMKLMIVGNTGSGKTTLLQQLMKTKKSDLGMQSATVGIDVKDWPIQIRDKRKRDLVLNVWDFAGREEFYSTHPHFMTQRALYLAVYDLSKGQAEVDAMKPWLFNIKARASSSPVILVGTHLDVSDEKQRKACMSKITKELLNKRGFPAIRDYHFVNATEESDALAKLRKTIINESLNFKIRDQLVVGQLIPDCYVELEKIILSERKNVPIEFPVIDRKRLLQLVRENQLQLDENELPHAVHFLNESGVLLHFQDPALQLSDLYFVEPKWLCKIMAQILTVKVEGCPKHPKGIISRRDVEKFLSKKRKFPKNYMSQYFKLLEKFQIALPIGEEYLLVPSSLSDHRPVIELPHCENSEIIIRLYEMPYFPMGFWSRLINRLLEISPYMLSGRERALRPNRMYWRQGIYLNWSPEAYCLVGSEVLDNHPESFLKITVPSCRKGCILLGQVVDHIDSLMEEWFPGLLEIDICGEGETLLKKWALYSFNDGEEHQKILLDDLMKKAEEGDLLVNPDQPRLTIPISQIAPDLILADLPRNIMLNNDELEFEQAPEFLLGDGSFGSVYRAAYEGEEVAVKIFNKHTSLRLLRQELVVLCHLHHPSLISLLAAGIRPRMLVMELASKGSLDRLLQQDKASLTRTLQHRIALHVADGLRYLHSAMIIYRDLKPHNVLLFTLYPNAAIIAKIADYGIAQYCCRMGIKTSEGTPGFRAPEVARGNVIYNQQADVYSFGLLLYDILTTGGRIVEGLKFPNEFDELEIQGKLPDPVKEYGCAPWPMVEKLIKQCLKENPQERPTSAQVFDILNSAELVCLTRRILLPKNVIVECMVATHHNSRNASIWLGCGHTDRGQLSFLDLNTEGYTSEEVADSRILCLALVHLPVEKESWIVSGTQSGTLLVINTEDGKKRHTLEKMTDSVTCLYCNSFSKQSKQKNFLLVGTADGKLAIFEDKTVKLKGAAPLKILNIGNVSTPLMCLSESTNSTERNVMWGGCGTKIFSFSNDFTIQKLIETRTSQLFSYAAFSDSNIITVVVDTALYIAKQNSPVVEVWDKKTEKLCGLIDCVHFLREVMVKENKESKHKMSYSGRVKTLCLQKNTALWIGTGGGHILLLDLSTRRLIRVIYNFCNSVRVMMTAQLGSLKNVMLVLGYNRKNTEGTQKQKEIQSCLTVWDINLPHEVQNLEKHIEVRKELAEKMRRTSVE

Q: `Cc1nn(C(C)(C)C#N)cc1Nc1ncc(Cl)c(OC[C@H]2CC[C@H](NC(=O)C(F)F)CC2)n1` [Example 100, N-((1R,4R)-4-(((5-chloro-2-((1-(2-cyano-propan-2-yl)-3-methyl-1H-pyrazol-4-yl)amino)pyrimidin-4-yl)oxy)methyl)cyclohexyl)-2,2-difluoro-acetamide] was tested. Which IC50 did it give?
A: < 50 nM

Q: With `Cc1nn(C(C)C)cc1Nc1ncc(F)c(OC[C@H]2CC[C@H](O)CC2)n1` [Example 230, (1R,4R)-4-(((5-fluoro-2-((1-isopropyl-3-methyl-1H-pyrazol-4-yl)amino)pyrimidin-4-yl)oxy)methyl)cyclohexan-1-ol] as the compound, how does the IC50 read?
A: 50 to 200 nM

Q: Which IC50 does the source give for `Cc1nn(C(C)(C)C#N)cc1Nc1ncc(Cl)c(OCC2CCN(C)CC2)n1` [Example 57, 2-(4-((5-chloro-4-((1-methylpiperidin-4-yl)methoxy)pyrimidin-2-yl)amino)-3-methyl-1H-pyrazol-1-yl)-2-methylpropanenitrile] here?
A: 50 to 200 nM

Q: `C[C@@H]1CN(c2ccc(Nc3ncc(F)c(OCC4CCNCC4F)n3)cc2)C[C@H](C)O1` (single isomer, unassigned) [Example 168] was tested. Which IC50 did it give?
A: 50 to 200 nM

Q: With `C[C@@H]1CN(c2ccc(Nc3ncc(F)c(OCC4CCNCC4F)n3)cc2)C[C@H](C)O1` (single isomer, unassigned) [Example 169] as the compound, how does the IC50 read?
A: 50 to 200 nM

Q: How did the IC50 turn out when `CC(=O)N[C@H]1CC[C@H](COc2ccnc(Nc3cnn(C(C)C)c3)n2)CC1` [Example 76, N-((1R,4R)-4-(((2-((1-isopropyl-1H-pyrazol-4-yl)amino)pyrimidin-4-yl)oxy)methyl)cyclo-hexyl)acetamide] was run?
A: 50 to 200 nM

Q: For `CC(=O)N1CCC(COc2nc(Nc3cn(C(C)(C)C#N)nc3C)ncc2Cl)C(F)(F)C1` (stereo not shown) [Example 96, 2-(4-((4-((1-acetyl-3,3-difluoropiperidin-4-yl)methoxy)-5-chloropyrimidin-2-yl)amino)-3-methyl-1H-pyrazol-1-yl)-2-methylpropanenitrile], which IC50 is on record?
A: < 50 nM

— US11578061B2, “Inhibitors of LRRK2 kinase” (Halia Therapeutics, Inc., priority 2021, dated 2023)
